Test results published in publication PMC7616174, “Development of Novel 4-Arylpyridin-2-one and 6-Arylpyrimidin-4-one Positive Allosteric Modulators of the M1 Muscarinic Acetylcholine Receptor” (ChemMedChem, 2020).
Where two headings read alike, the source gives them in different places.

Experiments:
[1] = target: T1, hM1 mAChR (Homo sapiens, UniProt P11229); assay: IP1 accumulation assay (ACh concentration-response curves in absence or presence of modulator); assay type: cell-based; details: for αβ (functional cooperativity with ACh) / τB (intrinsic efficacy of the modulator) / log τB (logarithm of intrinsic efficacy of the modulator) / log αβ (logarithm of functional cooperativity between ACh and modulator): IP1 accumulation; for αβ (functional cooperativity with ACh) / τB (intrinsic efficacy of the modulator): antilog, in parentheses; for log τB (logarithm of intrinsic efficacy of the modulator) / log αβ (logarithm of functional cooperativity between ACh and modulator): operational model; for log αβ (logarithm of functional cooperativity between ACh and modulator): pKB constrained to binding value; for activation at 1 µM: read-out: Δbaseline [1 μM]: change in basal response in presence of M1 PAM compared to control curve; for activation at 10 µM: read-out: Δbaseline [10 μM]: change in basal response in presence of M1 PAM compared to control curve
T1 construct: expressed in transfected cells
T1 sequence (P11229 1-460): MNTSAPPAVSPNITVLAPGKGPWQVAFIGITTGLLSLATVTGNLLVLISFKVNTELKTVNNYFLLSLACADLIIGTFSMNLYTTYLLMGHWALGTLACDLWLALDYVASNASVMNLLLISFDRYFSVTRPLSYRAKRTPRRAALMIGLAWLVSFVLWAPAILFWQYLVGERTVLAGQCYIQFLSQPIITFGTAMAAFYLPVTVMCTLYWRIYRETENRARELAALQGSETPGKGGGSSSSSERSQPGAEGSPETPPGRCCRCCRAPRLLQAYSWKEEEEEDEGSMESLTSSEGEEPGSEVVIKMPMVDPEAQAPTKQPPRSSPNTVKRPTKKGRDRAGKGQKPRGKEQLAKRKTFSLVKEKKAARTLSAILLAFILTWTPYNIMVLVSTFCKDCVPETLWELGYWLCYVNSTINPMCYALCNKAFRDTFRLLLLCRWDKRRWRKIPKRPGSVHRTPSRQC

[2] = target: T2, M1 mAChR (Homo sapiens, UniProt P11229); parameters: method as in PMID 24051397; details: ref 10a; cited from earlier work
T2 construct: expressed in transfected cells; host or cells: parental FlpIn CHO cells (transient, PEI)
T2 sequence (P11229 1-460): T1 sequence (P11229 1-460)

[3] = in vivo; details: male, C57Bl/6 J, mouse, 10 mg/kg
Experimental: The study was performed using 10–12 weeks old male C57Bl/6 J naïve mice in accordance with the Australian Code of Practice for the Care and Use of Animals for Scientific Purposes, with procedures approved by the Animal Ethics Committee of the Monash Institute of Pharmaceutical Sciences.

[4] = 1 μM modulator, FlpIn CHO hM1 cells, mean ± SEM, 3 experiments
[5] = 10 μM modulator, FlpIn CHO hM1 cells, mean ± SEM, 3 experiments

| Compound | ΔpEC50 [1 μM]: change in ACh pEC50 in presence of M1 PAM compared to control curve [1, 4] | ΔpEC50 [10 μM]: change in ACh pEC50 in presence of M1 PAM compared to control curve [1, 5] | αβ (functional cooperativity with ACh) [1] | τB (intrinsic efficacy of the modulator) [1] | log τB (logarithm of intrinsic efficacy of the modulator) [1] | log αβ (logarithm of functional cooperativity between ACh and modulator) [1] | activation at 1 µM [1] | activation at 10 µM [1] | increase in binding cooperativity with ACh (αACh) compared to MIPS1650 (1) [2] | increase in intrinsic efficacy (τB) compared to MIPS1650 (1) [2] | Kp ([3]; brain/plasma, ip) | Kp uu ([3]; brain/plasma, ip) | activation at 1 µM [1, 4] | activation at 10 µM [1, 5] | concentration at 90 min ([3]; brain, intraperitoneal) |
| --- | --- | --- | --- | --- | --- | --- | --- | --- | --- | --- | --- | --- | --- | --- | --- |
| Cn1cc(-c2ccc(COc3ccccc3-c3cc(=O)n(C4CCCCC4O)cn3)cc2)cn1 (centres unmarked) [Compound 2, 3-(2-Hydroxycyclohexyl)-6-(2-((4-(1-methyl-1H-pyrazol-4-yl)benzyl)oxy)phenyl)pyrimidin-4(3H)-one] | 1.52±0.14 | 1.28±0.42 | 363 | 6 | 0.78±0.02 | 2.56±0.07 | 55.1 ± 2.4% | 85.3 ± 2.4% | fourfold increase | 11 fold | < 0.1 | < 0.1 | – | – | – |
| CN(C)C(=O)Cn1ccc(-c2ccccc2OCc2ccc(-c3cnn(C)c3)cc2)cc1=O [Compound 13c, N,N-Dimethyl-2-(4-(2-((4-(1-methyl-1H-pyrazol-4-yl)benzyl)oxy)phenyl)-2-oxopyridin-1(2H)-yl)acetamide] | 0.73±0.08 | 1.33±0.17 | 118 | 3 | 0.45±0.03 | 2.07±0.08 | – | – | – | – | – | – | 2.1 ± 2.1% | 63.6 ± 2.3% | – |
| Cn1cc(-c2ccc(COc3ncccc3-c3ccn(C4CCCCC4O)c(=O)c3)cc2)cn1 (centres unmarked) [Compound 7f, 1’-(2-Hydroxycyclohexyl)-2-((4-(1-methyl-1H-pyrazol-4-yl)benzyl)oxy)-[3,4’-bipyridin]-2’(1’H)-one] | 0.76±0.07 | 1.41±0.10 | 316 | 4 | 0.56±0.05 | 2.50±0.08 | – | – | – | – | – | – | 4.8 ± 1.9% | 20.5 ± 2.5% | 100 nM |
